Experimental data as given in US12629370B2, “Treatment of prostate cancer” (Sumitomo Pharma Co., Ltd., priority 2016, dated 2026).
Entries after “also recorded” stand apart in the source; their conditions may differ.

Key:
PSA = assay: Example 8: PSA response; assay type: in vivo, human
Description: Eligible men were aged ≥18 years with a histologically confirmed diagnosis of prostate adenocarcinoma, and were candidates for ADT for the management of hormone-sensitive prostate cancer with one of the following clinical disease states: advanced localized disease not suitable for primary surgical or radiation therapy; evidence of PSA biochemical or clinical relapse following primary surgery or radiation therapy of curative intent; or newly diagnosed metastatic disease that was asymptomatic and without visceral involvement. Additional inclusion criteria at screening included: eugonadal serum testosterone >150 ng/dl (5.2 nmol/L); serum PSA concentration >2 ng/ml (or, when applicable, >0.2 ng/ml following radical prostatectomy or >2 ng/mL above the post-radiotherapy nadir following radiotherapy); body mass index ≥18.0 at screening and/or baseline (i.e., the subject's BMI prior to treatment commencing); and Eastern Cooperative Oncology Group (ECOG) performance status of 0 or 1. Patients with advanced, localized MON1 or M1 disease with clinically significant symptoms or visceral involvement, who required immediate GnRH therapy, chemotherapy, or radiation therapy were not eligible for the trial.
PSA levels were measured at each visit.

[1] = test system: patients with advanced prostate cancer; assay: Example 8: quality of life, Aging Male Survey (AMS); assay type: in vivo, human; conditions: Leuprorelin Q12W
Protocol: Quality of life (QoL) was assessed throughout the study and the follow-up period. The 25-item Prostate Cancer Module of the European Organization for Research and Treatment of Cancer Quality of Life Questionnaire (EORTC QLQ-PR25), Aging Male Survey (AMS), and core 30-item EORTC Quality of Life Questionnaire (EORTC QLQ-C30) were completed at screening, day 1 of weeks 5, 13, 25, 37, and 49, and, if applicable, at the follow-up visits.

serum testosterone = assay: Example 8: serum testosterone in men with advanced prostate cancer, versus leuprolide acetate; assay type: in vivo, human; conditions: for Testosterone Mean (Std Dev) / Testosterone Median / Median testosterone: Leuprorelin Q12W
Description: Eligible men were aged ≥18 years with a histologically confirmed diagnosis of prostate adenocarcinoma, and were candidates for ADT for the management of hormone-sensitive prostate cancer with one of the following clinical disease states: advanced localized disease not suitable for primary surgical or radiation therapy; evidence of PSA biochemical or clinical relapse following primary surgery or radiation therapy of curative intent; or newly diagnosed metastatic disease that was asymptomatic and without visceral involvement. […] Patients with advanced, localized MON1 or M1 disease with clinically significant symptoms or visceral involvement, who required immediate GnRH therapy, chemotherapy, or radiation therapy were not eligible for the trial.
Serum testosterone levels were measured at each visit.

FSH = assay: Example 8: FSH levels; assay type: in vivo, human; conditions: for FSH Mean (Std Dev) / FSH Median: Leuprorelin Q12W;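 on all read-outs here: FSH determined at every study visit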
[2] = test system: patients with advanced prostate cancer; assay: Example 8: treatment-emergent adverse events (safety population)
Protocol: The core tablets were coated with a film coating comprising hypromellose 2910 (21.36 mg), titanium dioxide (2.4 mg), and red ferric oxide (0.06 mg).
For patients receiving leuprolide acetate (leuprorelin), on-treatment study visits occurred at baseline (day 1, week 1), day 1 of weeks 2, 3, and 5, and then every 4 weeks until week 25, and then at 12 week intervals (week 37 and 49). Patients on leuprorelin received their final injection at week 37, day 1, and the week 49, day 1 visit was considered the end of leuprorelin exposure. Patients receiving leuprorelin at visits at 16 (EOT), 20 (follow-up visit), and 24 (EOS) weeks after the last leuprorelin injection.
Efficacy and safety analyses were conducted using a safety population (received ≥1 dose of study drug). […] Safety was assessed by recording the incidence, severity, and types of treatment-emergent adverse events; by physical examination (including slit lamp examination of the anterior eye); and by evaluating changes from baseline in weight, vital signs, 12-lead electrocardiogram (ECG), and clinical laboratory parameters. […] Adverse events were coded using the Medical Dictionary for Regulatory Activities version 19.0 and graded according to National Cancer Institute Common Terminology Criteria version 4.03 (Tables 7 and 8). Safety-related haematology, chemistry, and urinalysis measurements were taken at each study visit and analysed at a central laboratory (LabCorp). Phospholipidosis was assessed as part of the safety assessments.

## CCNC(=O)[C@@H]1CCCN1C(=O)[C@H](CCCNC(=N)N)NC(=O)[C@H](CC(C)C)NC(=O)[C@@H](CC(C)C)NC(=O)[C@H](Cc1ccc(O)cc1)NC(=O)[C@H](CO)NC(=O)[C@H](Cc1c[nH]c2ccccc12)NC(=O)[C@H](Cc1c[nH]cn1)NC(=O)[C@@H]1CCC(=O)N1 [Leuprorelin, leuprolide acetate]
PSA; Leuprolide Q12W
  Median time from first dose to PSA nadir: 20.5 Weeks
PSA; after 4 weeks of treatment
  patients with ≥50% serum PSA reduction: 20%
  patients with ≥90% serum PSA reduction: 0%
[1]; Baseline
  AMS total score, mean: 28.3
[1]; EOS
  AMS total score after treatment, mean (95% CI) percent change from baseline: 49.9 (21.0-78.7) %
[1]; EOT
  AMS total score after treatment, mean (95% CI) percent change from baseline: 61.0 (22.7-99.2) %
[1]; Follow-up
  AMS total score after treatment, mean (95% CI) percent change from baseline: 53.8 (18.2-89.4) %
[1]; W5, D1
  AMS total score, mean percent change from baseline: 10.1%
[1]; W13, D1
  AMS total score, mean percent change from baseline: 21.9%
[1]; W25, D1
  AMS total score, mean percent change from baseline: 47.0%
[1]; W37, D1
  AMS total score, mean percent change from baseline: 49.4%
[1]; W49, D1
  AMS total score, mean percent change from baseline: 60.0%
Serum testosterone; Baseline
  Testosterone Mean (Std Dev): 11.363 (5,0204) nmol/L
  Testosterone Median: 11.120 nmol/L
Serum testosterone; EOS
  Median testosterone: 13.5 ng/dL
Serum testosterone; EOT
  Median testosterone: 9.8 ng/dL
Serum testosterone; End of Study
  Testosterone Mean (Std Dev): 1.695 (3.0345) nmol/L
  Testosterone Median: 0.470 nmol/L
Serum testosterone; End of Treatment
  Testosterone Mean (Std Dev): 0.641 (0.9616) nmol/L
  Testosterone Median: 0.340 nmol/L
Serum testosterone; Follow-Up
  Testosterone Mean (Std Dev): 0.992 (2.2948) nmol/L
  Testosterone Median: 0.340 nmol/L
Serum testosterone; Follow-up visit
  Median testosterone: 9.8 ng/dL
Serum testosterone; Week 49, Day 1
  Testosterone Mean (Std Dev): 0.478 (0.6313) nmol/L
  Testosterone Median: 0.300 nmol/L
Serum testosterone; leuprolide acetate 22.5 mg SC
  course of serum testosterone levels: rose during the first 1-2 weeks of therapy then declined to castration levels by Week 5 Day 1; also recorded: rose during the first 1 to 2 weeks of therapy then declined to castrate levels by Week 5 Day 1
FSH; Baseline
  FSH Mean (Std Dev): 19.688 (19.1894) IU/L
  FSH Median: 14.500 IU/L
FSH; Week 2, Day 1
  FSH Mean (Std Dev): 7.650 (5.4542) IU/L
  FSH Median: 5.150 IU/L
FSH; Week 5, Day 1
  FSH Mean (Std Dev): 2.946 (1.4428) IU/L
  FSH Median: 2.550 IU/L
FSH; Week 13, Day 1
  FSH Mean (Std Dev): 4.625 (2.5594) IU/L
  FSH Median: 3.600 IU/L
FSH; Week 25, Day 1
  FSH Mean (Std Dev): 5.043 (2.8221) IU/L
  FSH Median: 4.400 IU/L
FSH; Week 49, Day 1
  FSH Mean (Std Dev): 5.145 (2.8201) IU/L
  FSH Median: 4.250 IU/L
FSH; after 48 weeks of treatment
  median FSH: ~4.2 mIU/mL
[2]; Leuprorelin Q12W
  Cerebral haemorrhage, Grade ≥3: 0 n (%)
  Cerebrovascular accident, Grade ≥3: 0 n (%)
  Death (Table 7): 1 (4) n (%)
  Death, Grade ≥3 (Table 8): 0 n (%)
  Musculoskeletal pain, Grade ≥3: 0 n (%)
  Sudden death, Grade ≥3: 0 n (%)
[2]; in vivo
  Acute coronary syndrome, Grade ≥3: 0 n (%)
  Adverse event resulting in study drug discontinuation: 0 n (%)
  Alanine aminotransferase increased, Grade ≥3: 0 n (%)
  Any adverse event: 23 (96) n (%)
  Arthralgia, Grade ≥3 (Table 8): 0 n (%)
  Aspartate aminotransferase increased, Grade ≥3: 0 n (%)
  Atrial flutter, Grade ≥3: 0 n (%)
  Bladder cancer, Grade ≥3: 0 n (%)
  Cervical vertebral fracture, Grade ≥3: 0 n (%)
  Diabetes mellitus, Grade ≥3: 1 (4) n (%)
  Drug-related adverse event: 18 (75) n (%)
  Fatigue, Grade ≥3 (Table 8): 0 n (%)
  Gamma-glutamyltransferase increased, Grade ≥3: 0 n (%)
  Grade ≥3 adverse event (Table 7): 2 (8) n (%)
  Hypercalcaemia, Grade ≥3: 0 n (%)
  Hypertension, Grade ≥3: 0 n (%)
  Hypotension, Grade ≥3: 0 n (%)
  Inguinal hernia, Grade ≥3: 0 n (%)
  Joint dislocation, Grade ≥3: 0 n (%)
  Metastases to bone, Grade ≥3: 0 n (%)
  Myocardial infarction, Grade ≥3: 1 (4) n (%)
  Non-cardiac chest pain, Grade ≥3: 0 n (%)
  Osteoarthritis, Grade ≥3: 0 n (%)
  Patients with at least 1 Grade ≥3 adverse events (Table 8): 2 (8) n (%)
  Procedural pain, Grade ≥3: 0 n (%)
  Sepsis, Grade ≥3: 0 n (%)
  Serious adverse event: 2 (8) n (%)
  Syncope, Grade ≥3: 0 n (%)
  Transient ischaemic attack, Grade ≥3: 0 n (%)
  Urinary tract infection, Grade ≥3: 0 n (%)
  hot flush (most common adverse event), patients: 15 (63%) n (%)
